In BindingDB's records for doi:10.1021/jm00128a026 (Roche Research Center, 1989):

Assays:
[1] = biological target: Platelet-activating factor receptor (Canis lupus familiaris); test: Inhibition of [3H]PAF binding to dog platelets.
[2] = biological target: Platelet-activating factor receptor (Canis lupus familiaris); test: Inhibition of [3H]PAF binding to dog platelets.; remark: listed apart in the source

Row | Structure (SMILES) | IC50 [1] [nM] | IC50 [2] [nM]
1 | O=C(C=C(c1ccccc1)c1ccccc1)NCCCCc1cccnc1 | 450 | –
2 | COc1ccc(C(=C/C=C/C(=O)Nc2ccc(-c3cccnc3)cc2)c2ccc(OC)cc2)cc1 | 10 | –
3 | COc1ccc(C(=C/C=C/C(=O)NCCCCc2cccnc2)c2ccc(OC)c(OC)c2)cc1OC | 55 | –
4 | COc1ccc(C(=C/C=C/C(=O)NC(C)(C)CCCc2cccnc2)c2ccc(OC)cc2)cc1 | 85 | –
5 | COc1ccc(C(=C/C=C/C(=O)Nc2ccc(Cc3cccnc3)cc2)c2ccc(OC)cc2)cc1 | 250 | –
6 | O=C(CCCCC=C(c1ccccc1)c1ccccc1)NCCCCc1cccnc1 | 550 | –
7 | COc1cccc(/C(=C\C=C\C(=O)NCCCCc2cccnc2)c2cccc(F)c2)c1 | 25 | –
8 | COc1ccccc1C(=C/C=C/C(=O)NCCCCc1cccnc1)c1ccccc1OC | 40 | –
9 | COc1cccc(C(=C/C=C/C(=O)N[C@@H](C)CCCc2cccnc2)c2cccc(OC)c2)c1 | – | 300
10 | O=C(C/C=C/C=C(c1ccccc1)c1ccccc1)NCCCCc1cccnc1 | 55 | –
11 | Cc1ccc(C(=C/C=C/C(=O)N[C@H](C)CCCc2cccnc2)c2ccc(C)cc2)cc1 | 250 | –
12 | COc1ccc(C(=C/C=C/C(=O)NC(C)CCCc2cccnc2C)c2ccc(OC)cc2)cc1 (stereo unspecified) | – | 30
13 | O=C(/C=C/C=C(c1cccc(F)c1)c1cccc(F)c1)NCCCCc1cccnc1 | 20 | –
14 | O=C(CCC=C(c1ccccc1)c1ccccc1)NCCCCc1cccnc1 | 100 | –
15 | COc1ccc(C(=C/C=C/C(=O)N[C@@H](CCCc2cccnc2)C2CCCC2)c2ccc(OC)cc2)cc1 | > 1000 | –
16 | COc1cccc(/C(=C/C=C/C(=O)NCCCCc2cccnc2)c2cccc(F)c2)c1 | – | 40
17 | O=C(/C=C\C=C(c1ccccc1)c1ccccc1)NCCCCc1cccnc1 | 400 | –
18 | COc1ccc(C(=C/C=C/C(=O)NCCCCc2cccnc2)c2ccc(OC)cc2)cc1 | 25 | –
19 | O=C(/C=C/C=C(c1ccc(F)cc1)c1ccc(F)cc1)NCCCCc1cccnc1 | 40 | –
20 | COc1ccc(C(=C/C=C/C(=O)NCCOCc2cccnc2)c2ccc(OC)cc2)cc1 | – | 250
21 | CCCC[C@H](CCCc1cccnc1)NC(=O)/C=C/C=C(c1ccc(OC)cc1)c1ccc(OC)cc1 | > 1000 | –
22 | COc1ccc(C(=C/C=C/C(=O)N[C@@H](CCCc2cccnc2)C2CC2)c2ccc(OC)cc2)cc1 | 60 | –
23 | O=C(/C=C/C=C(c1ccc(Cl)cc1)c1ccc(Cl)cc1)NCCCCc1cccnc1 | – | 60
24 | COc1cccc(C(=C/C=C/C(=O)NCCCCc2cccnc2)c2cccc(OC)c2)c1 | 2 | –
25 | COc1ccc(C(=C/C=C/C(=O)N[C@H](C)CCCc2cccnc2)c2ccc(OC)c(OC)c2)cc1OC | 50 | –
26 | COc1cccc(C(=C/C=C/C(=O)N[C@H](C)CCCc2cccnc2)c2cccc(OC)c2)c1 | 35 | –

More lines, now with the values ahead:

Row | IC50 [1] [nM] | IC50 [2] [nM] | Structure (SMILES)
27 | 120 | – | CC[C@H](CCCc1cccnc1)NC(=O)/C=C/C=C(c1ccc(OC)cc1)c1ccc(OC)cc1
28 | 10 | – | CCCCC/C(=C/C=C/C(=O)N[C@H](C)CCCc1cccnc1)c1ccc(OC)cc1
29 | 2 | – | COc1ccc(/C(=C/C=C/C(=O)N[C@H](C)CCCc2cccnc2)c2ccccc2)cc1
30 | 50 | – | CCC/C(=C\C=C\C(=O)N[C@H](C)CCCc1cccnc1)c1ccc(OC)cc1
31 | – | 400 | CC[C@@H](CCCc1cccnc1)NC(=O)/C=C/C=C(c1ccc(OC)cc1)c1ccc(OC)cc1
32 | – | 40 | COc1ccc(/C(=C/C=C/C(=O)N[C@H](C)CCCc2cccnc2)C(C)C)cc1
33 | 20 | – | COc1ccc(/C(=C\C=C\C(=O)N[C@H](C)CCCc2cccnc2)C2CCCCC2)cc1
34 | 20 | – | COc1ccc(/C(=C/C=C/C(=O)N[C@H](C)CCCc2cccnc2)C2CCCCC2)cc1
35 | > 1000 | – | CCC[C@H](CCCc1cccnc1)NC(=O)/C=C/C=C(c1ccc(OC)cc1)c1ccc(OC)cc1
36 | – | 25 | COc1ccc(/C(C)=C/C=C/C(=O)N[C@H](C)CCCc2cccnc2)cc1
37 | – | 30 | CC/C(=C\C=C\C(=O)N[C@H](C)CCCc1cccnc1)c1ccc(OC)cc1
38 | – | 5 | CCCCCCCC/C(=C\C=C\C(=O)N[C@H](C)CCCc1cccnc1)c1ccc(OC)cc1
39 | – | 4 | COc1ccc(/C(=C\C=C\C(=O)N[C@H](C)CCCc2cccnc2)c2ccccc2)cc1
40 | 14 | – | CCCC/C(=C\C=C\C(=O)N[C@H](C)CCCc1cccnc1)c1ccc(OC)cc1
41 | 30 | – | COc1ccc(/C=C/C=C/C(=O)N[C@H](C)CCCc2cccnc2)cc1
